Assays:
[1] = system: Fc epsilon RI (FcεRI); test: Fc epsilon RI immunohistochemical marker in scar biopsies; format: in vivo, human; conditions: week 4, all groups, p<0.01
Experimental: (§1) A double-blind randomized placebo-controlled trial was conducted using a temporal punch-biopsy model. The punch biopsy and topical application methodology used in the study is illustrated in FIG. 1, namely showing pre-injury pre-emptive priming (7-days), pre-injury pre-emptive priming (3-days), day of injury (immediate application on day 0), post-injury (delayed 2 weeks post injury) including biopsy time points and time of topical applications. Each group applied both placebo and topical formulations twice daily for the duration of the study until week 8, with only the starting time point differing between groups Participants were split into 4 groups (n=10 in each group) in order to compare different modes (timings) of commencement of the topical application: • Group-1: Pre-emptive Priming (7-days): pre-injury • Group-2: Pre-emptive Priming (3-days): pre-injury • Group-3: Immediate (0-day): day-of-injury • Group-4: Delayed (14-days): post-injury Clinical quantitative devices were used to objectively monitor cutaneous healing at weekly intervals and punch biopsies were performed on day 0 (uninjured skin) and at weeks 4 and 8 for protein and gene expression analyses. […] Excisional skin biopsies in upper arms were evaluated weekly with multiple quantitative devices over an 8-week period. […]

[2] = system: human skin scarring model; test: Scar thickness by H+E stain; format: in vivo; conditions: weeks 4 and 8, Groups 1, 2 and 4
Experimental: as §1

[3] = system: HBB, HBA1, HBA2; test: mRNA sequencing of scar biopsies; format: in vivo, human; conditions: group-1, week 4
Experimental: as §1

[4] = system: human skin scarring model; test: Blood flow by dynamic optical coherence tomography (D-OCT); format: in vivo
Experimental: A double-blind randomized placebo-controlled trial was conducted using a temporal punch-biopsy model. The punch biopsy and topical application methodology used in the study is illustrated in FIG. 1, namely showing pre-injury pre-emptive priming (7-days), pre-injury pre-emptive priming (3-days), day of injury (immediate application on day 0), post-injury (delayed 2 weeks post injury) including biopsy time points and time of topical applications. Each group applied both placebo and topical formulations twice daily for the duration of the study until week 8, with only the starting time point differing between groups Participants were split into 4 groups (n=10 in each group) in order to compare different modes (timings) of commencement of the topical application: • Group-1: Pre-emptive Priming (7-days): pre-injury • Group-2: Pre-emptive Priming (3-days): pre-injury • Group-3: Immediate (0-day): day-of-injury • Group-4: Delayed (14-days): post-injury Clinical quantitative devices were used to objectively monitor cutaneous healing at weekly intervals and punch biopsies were performed on day 0 (uninjured skin) and at weeks 4 and 8 for protein and gene expression analyses. In the trial, topical EGCG and a placebo topical were applied twice daily for the duration of the trial until week 8 with only the starting time points differing between groups. Blood flow analysis using non-invasive objective measures, including full-field laser perfusion imaging (FLPI) and dynamic optical coherence tomography (D-OCT), was undertaken. Clinical images and the corresponding FLPI and D-OCT images are shown in FIGS. 6a, 6b and 6c respectively.

**Q.** With `O=C(OC1Cc2c(O)cc(O)cc2OC1c1cc(O)c(O)c(O)c1)c1cc(O)c(O)c(O)c1` (single isomer, unassigned; (-)) [EGCG, (-)-epigallocatechin-3-gallate] as the compound, how does the “FcεRI in EGCG-treated samples compared to placebo” value [1] read?
**A.** significant reduction

**Q.** And the “Scar thickness by H+E stain with EGCG” value [2]?
**A.** reduced scar thickness

**Q.** And the “mRNA sequencing: HBB, HBA1 and HBA2 expression with EGCG compared to placebo” value [3]?
**A.** reduced

**Q.** And the “D-OCT blood flow, EGCG-treated compared to placebo” value ([4]; group-1 weeks 1-8, group-2 weeks 1-8, group-3 weeks 1-5, 7, 8, group-4 weeks 4-7, p<0.01)?
**A.** significantly decreased

**Q.** And the “D-OCT blood flow, group comparison, groups 1-3 vs group-4” value ([4]; week 1, p<0.001, p=0.006, p=0.001)?
**A.** reduced blood flow more than group-4

**Q.** What about the “D-OCT blood flow, group comparison, group-1 vs group-4” value ([4]; week 2, p=0.016) of the same compound?
**A.** greater difference than group-4

**Q.** And the “D-OCT blood flow, group comparison, group-2 vs groups-3 and -4” value ([4]; week 8, p=0.003, p=0.002)?
**A.** reduced more than groups-3 and -4

Reference: patent US12691092B2, “Method for reducing cutaneous skin scarring by pre-emptive priming and compounds and compositions for its implementation” (SOS SCIENCE OF SKIN LTD, priority 2020, dated 2026)
